This note sets out measurements from patent US12215085B2 (priority 2019, dated 2025).

In data set [1] the test system is rats with common carotid artery occlusion-induced vascular dementia. Briefly: Brain pathological examination, common carotid artery occlusion-induced vascular dementia rats. The format is in vivo, rat. To be noted: 1.4 mg/kg and 2.8 mg/kg.
Data set [2] concerns normal anesthetized dogs. Description: General pharmacological indexes of normal anesthetized dog. The format is in vivo. Conditions: 0.8, 1.6 and 3.2 mg/kg. The text has this:
Meanwhile, the influence of Crystal Form A of octahydroaminoacridine succinate on the general pharmacological indexes of the normal anesthetized dog was observed.

Take `Nc1c2c(nc3c1CCCC3)CCCC2.O=C(O)CCC(=O)O` [Crystal Form A, 9-amino-1,2,3,4,5,6,7,8-octahydroacridine succinate]: the “pathological change of the common carotid artery occlusion-induced vascular dementia” value in data set [1] is reported as “could relieve the pathological change”. Moreover, the “respiratory frequency, respiratory amplitude, arterial blood pressure, heart rate and electrocardiogram” value in data set [2] is “no obvious influence”.
